{"source": "ChEMBL document CHEMBL1153131", "about": "“Synthesis and antitumor activity of novel 2',3'-dideoxy-2',3'-diethanethionucleosides bearing 1,2,3-triazole residues” (Bioorg Med Chem Lett, 2010)", "format_in_all_cases": "functional, cell-based", "key": {"HeLa": {"test_system": "HeLa", "experiment": "Cytotoxicity against human HeLa cells after 72 hrs by MTT assay"}, "HepG2": {"test_system": "HepG2", "experiment": "Cytotoxicity against human HepG2 cells after 72 hrs by MTT assay", "details": "for pEC50: Homo sapiens, HepG2, 72 h, read-out: EC50; call rule not given here"}, "[1]": {"experiment": "Cytotoxicity against human LAC cells after 72 hrs by MTT assay", "details": "for pEC50: Homo sapiens, LAC, 72 h, read-out: EC50; for EC50: lac"}, "A549": {"test_system": "A549", "experiment": "Cytotoxicity against human A549 cells after 72 hrs by MTT assay", "details": "A549, 72 h"}}, "note": "pEC50: −log10 of the molar value.", "data": [{"smiles": "CCS[C@@H]1[C@H](SCC)[C@@H](CO)O[C@H]1n1cc(Cn2cc(C)c(=O)[nH]c2=O)nn1", "values": [{"measurement": "pEC50", "setting": "HeLa", "value": "< 4.00"}, {"measurement": "pEC50", "setting": "HepG2", "value": "< 4.00"}, {"measurement": "pEC50", "setting": "[1]", "value": "< 4.00"}, {"measurement": "pEC50", "setting": "A549", "value": "< 4.00"}]}, {"smiles": "CCS[C@@H]1[C@H](SCC)[C@@H](CO)O[C@H]1n1cc(CO)nn1", "values": [{"measurement": "pEC50", "setting": "HeLa", "value": "< 4.00"}, {"measurement": "pEC50", "setting": "HepG2", "value": "< 4.00"}, {"measurement": "pEC50", "setting": "[1]", "value": "< 4.00"}, {"measurement": "pEC50", "setting": "A549", "value": "< 4.00"}]}, {"smiles": "CCS[C@@H]1[C@H](SCC)[C@@H](CO)O[C@H]1n1cc(Cn2ccc(N)nc2=O)nn1", "values": [{"measurement": "pEC50", "setting": "HeLa", "value": "< 4.00"}, {"measurement": "pEC50", "setting": "HepG2", "value": "< 4.00"}, {"measurement": "pEC50", "setting": "[1]", "value": "< 4.00"}, {"measurement": "pEC50", "setting": "A549", "value": "< 4.00"}]}, {"smiles": "CCS[C@@H]1[C@H](SCC)[C@@H](CO)O[C@H]1n1cc(-c2ccccc2)nn1", "values": [{"measurement": "pEC50", "setting": "HeLa", "value": 4.95}, {"measurement": "pEC50", "setting": "HepG2", "value": 5.02}, {"measurement": "pEC50", "setting": "[1]", "value": 4.68}, {"measurement": "pEC50", "setting": "A549", "value": 4.36}]}, {"smiles": "CCS[C@@H]1[C@H](SCC)[C@@H](CO)O[C@H]1n1cc(C)c(=O)[nH]c1=O", "values": [{"measurement": "pEC50", "setting": "HeLa", "value": 4.53}, {"measurement": "EC50", "setting": "HepG2; hepg2", "value": "Not Active"}, {"measurement": "EC50", "setting": "[1]", "value": "Not Active"}, {"measurement": "pEC50", "setting": "A549", "value": 4.06}]}, {"smiles": "CCS[C@@H]1[C@H](SCC)[C@@H](CO)O[C@H]1n1cc(C(=O)NC)nn1", "values": [{"measurement": "pEC50", "setting": "HeLa", "value": "< 4.00"}, {"measurement": "pEC50", "setting": "HepG2", "value": "< 4.00"}, {"measurement": "pEC50", "setting": "[1]", "value": "< 4.00"}, {"measurement": "pEC50", "setting": "A549", "value": "< 4.00"}]}, {"smiles": "CCS[C@@H]1[C@H](SCC)[C@@H](CO)O[C@H]1n1cc(-c2ccc(F)cc2)nn1", "values": [{"measurement": "pEC50", "setting": "HeLa", "value": 5.16}, {"measurement": "pEC50", "setting": "HepG2", "value": 5.02}, {"measurement": "pEC50", "setting": "[1]", "value": 4.79}, {"measurement": "pEC50", "setting": "A549", "value": 4.69}]}, {"smiles": "CCS[C@@H]1[C@H](SCC)[C@@H](CO)O[C@H]1n1cc(-c2ccc(OC)cc2)nn1", "values": [{"measurement": "pEC50", "setting": "HeLa", "value": 5.24}, {"measurement": "pEC50", "setting": "HepG2", "value": 4.96}, {"measurement": "pEC50", "setting": "[1]", "value": 4.84}, {"measurement": "pEC50", "setting": "A549", "value": 4.63}]}, {"smiles": "CCS[C@@H]1[C@H](SCC)[C@@H](CO)O[C@H]1n1ccc(=O)[nH]c1=O", "values": [{"measurement": "pEC50", "setting": "HeLa", "value": 4.12}, {"measurement": "pEC50", "setting": "HepG2", "value": 4.13}, {"measurement": "EC50", "setting": "[1]", "value": "Not Active"}, {"measurement": "pEC50", "setting": "A549", "value": 4.06}]}, {"smiles": "CCS[C@@H]1[C@H](SCC)[C@@H](CO)O[C@H]1n1ccc(N)nc1=O", "values": [{"measurement": "pEC50", "setting": "HeLa", "value": 3.75}, {"measurement": "pEC50", "setting": "HepG2", "value": 3.94}, {"measurement": "EC50", "setting": "[1]", "value": "Not Active"}, {"measurement": "pEC50", "setting": "A549", "value": 4.06}]}, {"smiles": "O=c1[nH]c(=O)n([C@H]2C[C@H](O)[C@@H](CO)O2)cc1F", "note": "[FLOXURIDINE]", "values": [{"measurement": "pEC50", "setting": "HeLa", "value": 4.99}, {"measurement": "pEC50", "setting": "HepG2", "value": 4.72}, {"measurement": "pEC50", "setting": "[1]", "value": 4.49}, {"measurement": "pEC50", "setting": "A549", "value": 5.01}]}]}
